Reference: patent US20220387457A1 (Qlaris Bio, Inc., priority 2020, published 2022)

How the values were obtained:
[1] = In vitro conversion of CKLP1 to levcromakalim in human ocular tissues and fluids; type: in vitro ADME; details: 10 μM CKLP1, 37° C.
Description: Aqueous humor was collected from each eye and combined in a single 1.5-mL tube. The eyes were then bisected at the equator, and vitreous humor was collected from both eyes, combined, and placed in a 15-mL conical tube and centrifuged at 1500 rpm for 10 minutes. Following centrifugation, the upper supernatant phase (less viscous region) was isolated and placed in a 1.5-mL tube. Tubes containing aqueous and vitreous humor were stored on ice. The following tissues were dissected from the eyes: cornea, retina, optic nerve, sclera, iris, ciliary body, and trabecular meshwork. The tissue samples were placed in 1.5-mL tubes containing approximately 200 μL of 50 mM Tris buffer pH 7.1. Each sample, except for the optic nerve sample, contained tissue from both eyes. Samples were stored on ice. Tissues were independently homogenized with a Polytron PT 1200 (setting 8) and placed on ice. The trabecular meshwork was lysed using a small pestle. In between samples, the homogenizer was cleaned and washed thoroughly with a minimum of 200 mL of distilled water.
Remaining tissue and debris were pelleted in an Eppendorf 5415C centrifuge at 13,000 rpm for 2 minutes. Supernatants were isolated and placed in clean 1.5-mL tubes. A Bradford protein assay was performed with 5 μL of supernatant of each sample. At the completion of the assay, 200-μL aliquots of each sample were placed in a 96-well plate, and protein concentrations were read using a TECAN Infinite® M200 plate reader at 595 nm. The final concentrations for all samples was 150 μg of protein in a solution of 10 μM CKLP1, except for vitreous humor, which only contained 100 μg of protein in 10 μM CKLP1 due to low protein concentration. There were 18 samples in total. Samples were mixed, briefly centrifuged and then, for each sample, a 100-μL portion was removed and placed in a new tube so that both tubes contained 100 μL (75 μg of protein each except vitreous humor, which contained 50 μg each). All pairs of samples were placed in incubation at 37° C. For each pair of tubes, one tube was incubated for 4 hours and one tube for 24 hours. At the completion of the incubation period, 200 μL of acetonitrile was added to each tube and mixed. Tubes were briefly centrifuged and placed at −80° C.

beagle dogs = assay: Safety findings, 28-day topical ophthalmic dosing in beagle dogs; type: in vivo, beagle dog
Description: In the study, dogs (3 males and 3 females) received bilateral daily topical administration of 40 μL/eye of 2.0%, 4.0%, or 8.0% as measured in mg/mL (equivalent to 0.8, 1.6, or 3.2 mg CKLP1 per eye) of CKLP1 in phosphate buffered saline. Based on an average male dog weight of 7.9 kg at the start of the study, these doses were equivalent to 0.20 mg/kg, 0.41 mg/kg, or 0.81 mg/kg and based on an average female dog weight of 6.0 kg at the start of the study, these doses were equivalent to 0.27 mg/kg, 0.53 mg/kg, or 1.07 mg/kg. Blood was collected for toxicokinetic analysis pre-dose and at 1, 2, 4, 8, 12, and 24 hours post dosing on days 1 and 28. In addition, 2 animals of each gender were allowed 336 hours (14 days) of recovery time following the final dose, at which point final blood samples were obtained.

CC1(C)Oc2ccc(C#N)cc2[C@@H](N2CCCC2=O)[C@@H]1OP(=O)(O)O [CKLP1]
conversion of CKLP1 to levcromakalim over 24 hours ([1]; human aqueous humor): not
conversion of CKLP1 to levcromakalim over 24 hours ([1]; human ciliary body): 2.6%
conversion of CKLP1 to levcromakalim over 24 hours ([1]; human cornea): 0.8%
conversion of CKLP1 to levcromakalim over 24 hours ([1]; human iris): 3.9%
conversion of CKLP1 to levcromakalim over 24 hours ([1]; human optic nerve): 0.9%
conversion of CKLP1 to levcromakalim over 24 hours ([1]; human retina): 0.7%
conversion of CKLP1 to levcromakalim over 24 hours ([1]; human sclera): 1.6%
conversion of CKLP1 to levcromakalim over 24 hours ([1]; human trabecular meshwork): 1.6%
conversion of CKLP1 to levcromakalim over 24 hours ([1]; human vitreous humor): not
non-adverse ocular effects (beagle dogs; 3.2 mg/eye/dose (8%)): slight to moderate redness (congestion)
microscopic findings, lacrimal gland (beagle dogs; 2 females at 3.2 mg/eye/dose (8%)): mild lacrimal gland acinar atrophy
reversibility of ocular findings (beagle dogs; 14-day recovery period): all ocular findings were fully recovered
microscopic findings, corneal epithelium (beagle dogs; males at ≥1.6 mg/eye/dose (4%) and 1 female at 3.2 mg/eye/dose (8%)): mild increased mitoses in the corneal epithelium
no-observed-adverse-effect level (NOAEL) (beagle dogs; topical, 28 days, % as measured in mg/mL): 8.0%
